# Data taken from PubChem BioAssay AID1208 (EPA DSSTox, 2008).
# The source made the active and inactive calls.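 The calls were made as follows: active = at least one rat sex group has a carcinogenic potency value and tumor site recorded; inconclusive = only rat studies were judged inadequate by the national testing program; inactive = no potency or tumor site, with negative rat experiments.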
# System: rat chronic carcinogenicity bioassay, TD50
# Assay: DSSTox (CPDBAS) Carcinogenic Potency Database Summary Rat Bioassay Results
# Settings: for Potency: stronger effect = lower value; for outcome: TD50_Rat_Note: no positive results
# In short: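 Chronic long-term rat cancer bioassays from literature and NCI/NTP, taking the most positive result per sex. TD50 in mmol converted to a 1–100 Activity Score from log10(1/TD50). Mixtures lacking TD50 scored 50.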
# [1] = TargetSites_Rat_Female: no positive results
SMILES,outcome [1],also measured
C=C(Cl)CSC(=S)N(CC)CC,–,"Potency (TD50_Rat_Note: TD50 is harmonic mean of more than one positive test, TargetSites_Rat_Female: mammary gland): 26.1 mg/kg/day"
N[C@@H](Cc1cnc[nH]1)C(=O)O,inactive; no positive results,–
CN(C)c1ccc(C(=N)c2ccc(N(C)C)cc2)cc1,–,Potency: 11 mg/kg/day
Cc1ccc2cc3c(ccc4ccccc43)c3c2c1CC3,–,"Potency (TD50_Rat_Note: TD50 is harmonic mean of more than one positive test, harmonic mean of TD50 includes a value for upper 99% confidence li, TargetSites_Rat_Female: mammary gland): 0.491 mg/kg/day"
COc1ccccc1[N+](=O)[O-],–,"Potency (TD50_Rat_Note: TD50 is harmonic mean of more than one positive test, greater than ten-fold variation among TD50 values for positive res, TargetSites_Rat_Female: hematopoietic system, kidney, large intestine, urinary bladder): 15.6 mg/kg/day"
Cc1cc(Cc2cc(C)cc(C(C)(C)C)c2O)c(O)c(C(C)(C)C)c1,inactive; no positive results,–
CCn1c2ccccc2c2cc(N)ccc21,–,"Potency (TD50_Rat_Note: TD50 is harmonic mean of more than one positive test, TD50_Rat_mmol was not calculated for this mixture, but Activiity S, TargetSites_Rat_Female: ear Zymbals gland): 26.4 mg/kg/day; Potency (TD50_Rat_Note: TD50 is harmonic mean of more than one positive test, TargetSites_Rat_Female: ear Zymbals gland, liver, uterus): 57.2 mg/kg/day"
[C-]1=CC=CC1.[C-]1=CC=CC1.[Cl-].[Cl-].[Ti+4],inactive; no positive results,–
S=P(N1CC1)(N1CC1)N1CC1,–,"Potency (TD50_Rat_Note: positive test results only by intraperitoneal or intravenous injection, TD50 is harmonic mean of more than one positive, TargetSites_Rat_Female: ear Zymbals gland): 0.164 mg/kg/day"
S=C(NC1CCCCC1)NC1CCCCC1,inactive; no positive results,–
C/C=C(/C)C(=O)O[C@H]1CCN2CC=C(COC(=O)[C@](O)([C@H](C)OC)C(C)(C)O)[C@H]12,–,"Potency (TD50_Rat_Note: TD50 is harmonic mean of more than one positive test, TargetSites_Rat_Female: hematopoietic system, liver, vascular system): 0.389 mg/kg/day"
CCCCC(C)(O)C/C=C/[C@H]1[C@H](O)CC(=O)[C@@H]1CCCCCCC(=O)OC (some centres not stated),inactive; no positive results,–
Clc1cc2c(c(Cl)c1Cl)Oc1c(cc(Cl)c(Cl)c1Cl)O2,–,Potency (TargetSites_Rat_Female: liver): 0.000596 mg/kg/day
ClCc1ccccc1,inactive; no positive results,–
Nc1ccc2nc3ccccn3c2n1,–,"Potency (TD50_Rat_Note: TD50 is harmonic mean of more than one positive test, TargetSites_Rat_Female: clitoral gland, ear Zymbals gland, large intestine, liver, small intestine): 42.3 mg/kg/day"
OCC(O)CCl (configuration not stated),inactive; no positive results,–
Nc1nnc(-c2ccc([N+](=O)[O-])o2)o1,–,"Potency (TargetSites_Rat_Female: kidney, lung, mammary gland, stomach): 3.67 mg/kg/day"
Cc1cccc(C)c1N,–,outcome: inactive; no positive results
C[C@]12CCC(=O)C=C1CC[C@@H]1[C@@H]2[C@@H](O)C[C@@]2(C)[C@H]1CC[C@]2(O)C(=O)CO,inactive; no positive results,–
F,inactive; no positive results,–

SMILES,outcome [1],also measured
FC(F)(Cl)Cl,inactive; no positive results,–
COc1ccccc1N1CCN(CCCNc2cc(=O)n(C)c(=O)n2C)CC1,inactive; no positive results,–
c1ccc(Nc2ccc3ccccc3c2)cc1,inactive; no positive results,–
C1N2CN3CN1CN(C2)C3,inactive; no positive results,–
O=C(O)O,–,"Potency (TD50_Rat_Note: TD50 is harmonic mean of more than one positive test, TargetSites_Rat_Female: urinary bladder): 13000 mg/kg/day; outcome: inactive; no positive results"
CCCN(N=O)C(N)=O,–,"Potency (TD50_Rat_Note: TD50 is harmonic mean of more than one positive test, harmonic mean of TD50 includes a value for upper 99% confidence li, TargetSites_Rat_Female: hematopoietic system): 3.77 mg/kg/day"
Cc1cc(Cl)ccc1OCC(=O)O,inactive; no positive results,–
CCN(CC)CCCNC(=O)Cn1ncc(-c2ccccc2)c1-c1ccccc1,inactive; no positive results,–
ClC(Cl)=C(Cl)c1c(Cl)c(Cl)c(Cl)c(Cl)c1Cl,inactive; no positive results,–
O=NN1CN2CN(C1)CN(N=O)C2,–,outcome: inactive; no positive results
CC(=O)Nc1ccc(OCC(O)CNC(C)C)cc1 (configuration not stated),inactive; no positive results,–
C[C@H](CCC(=O)O)[C@H]1CC[C@H]2[C@@H]3CC[C@@H]4C[C@H](O)CC[C@]4(C)[C@H]3CC[C@]12C,inactive; no positive results,–
CCCCC(CC)CO (configuration not stated),inactive; no positive results,–
O=[N+]([O-])c1ccc(-c2nc(NCCO)c3ccccc3n2)s1,–,Potency (TargetSites_Rat_Female: all tumor bearing animals): 1.87 mg/kg/day
O=S(=O)(O)O,–,"Potency (TD50_Rat_Note: TD50 is harmonic mean of more than one positive test, TargetSites_Rat_Female: lung): 40.8 mg/kg/day"
P,inactive; no positive results,–
CCC[CH2][Sn]([CH2]CCC)([O]C(C)=O)[O]C(C)=O,–,outcome (TargetSites_Rat_Female: NTP bioassay inadequate): inactive; no positive results
CC(O)CNCC(C)O (configuration not stated),–,outcome: inactive; no positive results
Nc1nc(N)nc(-c2cc(Cl)ccc2Cl)n1,–,outcome: inactive; no positive results
CN1C(=O)C[C@@H](C(=O)N[C@@H](Cc2cnc[nH]2)C(=O)N2CCC[C@H]2C(N)=O)NC1=O,inactive; no positive results,–
